This note sets out measurements from US7524849B2, “5-arylpyrimidines as anticancer agents” (Wyeth Holdings Corporation, priority 2003, dated 2009).

One series has as its system MAP-rich tubulin. The series can be described thus: Tubulin polymerization test with MAP-rich tubulin. It is filed as biochemical, bovine. Particulars: 0.3 μM compound, mean A340 at 20 min, fold enhancement over control. The method, then: (§1) Medium is RPMI-1640 with L-glutamine, supplemented with 10% heat-inactivated fetal calf serum, 100 units/mL penicillin, and 100 μg/mL streptomycin (Gibco, Grand Island, N.Y.). Microtubule-associated protein (MAP)-rich tubulin, containing about 70% tubulin and 30% MAPs (#ML113), and highly purified tubulin (>99% pure, #TL238), both from bovine brain, are obtained from Cytoskeleton, Inc., Denver, Colo. PEM buffer (80 mM piperazine-N,N′-bis[2-ethanesulfonic acid], pH 6.9, 1 mM ethylene glycol-bis(β-aminoethyl ether)-N,N,N′,N′-tetraacetic acid, 1 mM magnesium chloride) and guanosine 5′-triphosphate (GTP) are also obtained from Cytoskeleton. […] [^3H]vinblastine, specific activity 9.60 Ci/mmol and MicroSpin G-50 columns are obtained from Amersham Biosciences (Piscataway, N.J.). […] Other reagents are obtained from Sigma (St. Louis, Mo.).
MAP-rich tubulin is dissolved in ice-cold PEM buffer containing 1 mM GTP (GPEM buffer) at a concentration of 1.3 mg/mL. The solution is centrifuged at top speed in an Eppendorf model 5415C microcentrifuge (Brinkmann Instruments, Westbury, N.Y.) for 10 min at 4° immediately before use. The tubulin solution is added to wells of a ½-area 96-well plate (Costar No. 3696, Corning, Inc., Corning, N.Y.) already containing the compounds of interest. Each compound is tested in duplicate at a final concentration of 0.3 μM in a volume of 110 μL per well. The final DMSO concentration in all wells is 0.3%. Control reactions, which receive compound solvent only, are done in quadruplicate. The plate is put in a SpectraMax Plus plate reader (Molecular Devices Corp. Sunnyvale, Calif.) thermostated at 24° and the absorbance of each well at 340 nm, a measure of the appearance of turbidity due to tubulin polymer formation, is determined every minute for 60 minutes. The absorbance at time 0 for each well is subtracted from each of the subsequent absorbance readings for that well, and then the duplicates are averaged.

The test system of series [1] is highly purified tubulin (tubulin heterodimer). The series can be described thus: Competitive binding test, [3H]vinblastine. As to conditions: competitor 100 μM, [3H]vinblastine 100 nM, percent of binding to control without competitor. The arrangement: species or system bovine. The method, then:
as §1
(§2) The binding of examples of this invention to highly purified tubulin is studied by competitive inhibition methods.
(§3) These solutions are incubated at 24° for 1 hr and then applied to MicroSpin G-50 columns which are centrifuged for 2 min at 3000 rpm in an Eppendorf 5415C microfuge. An aliquot of each column effluent (containing tubulin and bound radioligand) is mixed with scintillation fluid and counted in a liquid scintillation spectrometer. […] Quadruplicates are averaged, and the ability of the competitor to inhibit the binding of the radioligand is expressed as a percentage of control binding in the absence of any competitor.

The next series deals with COLO 205 cells. The series can be described thus: MTS cytotoxicity test with COLO 205 cells. The series is classed as cell-based, human. As to conditions: three days with compound. The method, then: (§4) The assay, which is sold in kit form by Promega (Madison, Wis.; CellTiter 96 AQueous Non-Radioactive Cell Proliferation Assay), is based on the conversion by viable cells, but not by dead cells, of the tetrazolium salt, MTS (3-(4,5-dimethylthiazol-2-yl)-5-(3-carboxymethoxyphenyl)-2-(4-sulphophenyl)-2H-tetrazolium, inner salt), into a water-soluble colored formazan which is detected by spectrophotometry. Compounds are tested at nine concentrations, in order to determine IC50 values. For the test procedure, cells are harvested by trypsinization, washed, counted and distributed to wells of 96-well flat-bottom microtiter plates at 1000 cells per well in 200 μL of medium. In addition, one row of wells on a separate plate receives cells as above (“time 0” plate). All plates are incubated at 37° in humidified 5% CO2 in air for about 24 hr.
On day 2, compounds for test are diluted and added to wells. Compounds are dissolved in DMSO at 10 mg/mL. For each compound, nine serial 2-fold dilutions are prepared in DMSO. Ten μL of each dilution in DMSO are transferred to 100 μL of medium, mixed well, and then 5 μL of this dilution are transferred in quadruplicate to wells containing cells. The final high concentration of each compound is typically 5 μM. Plates are returned to the incubator for three days. At the time of drug addition to the experimental plates, the MTS assay is run on the “time 0” plate. This produces the “time 0 MTS value” which is related to the number of viable cells per well at the time of drug addition.
After three days of culture with test compounds (day 5 overall), the MTS assay is done on all wells of the experimental plates. The absorbance values of the quadruplicate sample wells are averaged and divided by the average of the “time 0” values. The average of control wells without drug, divided by the average “time 0” value, gives the maximal relative increase in MTS color yield due to cell growth during the final three days of culture. The average of control wells with high drug concentration, divided by the “time 0” value, gives the minimal relative color yield for cells that were completely killed. The nine values for each compound are plotted against concentration, and the concentration that produces a relative color yield half way between the maximum and minimum is taken as the IC50 value.
COLO 205 is a human colon carcinoma cell line that is used for comparative testing of the examples of this invention and several reference compounds. This line is sensitive to paclitaxel and vincristine.

Series [2] deals with highly purified tubulin (tubulin heterodimer). The series can be described thus: Competitive binding test, [3H]colchicine. The arrangement: species or system bovine. As to conditions: competitor 100 μM, [3H]colchicine 50 nM, percent of binding to control without competitor. On the procedure: as §1, §2, §3
A further series relates to KB-V1 cells. The series can be described thus: MTS cytotoxicity test with KB-V1 cells (very high P-glycoprotein). The series is classed as cell-based, human. Particulars: for IC50: KB VI cells, mean of 2 experiments.
From the text: (§5) Human cancer cell lines, unless otherwise noted, are obtained from the American Type Culture Collection (Rockville, Md.). The following drug-sensitive parental cell lines, and their derived drug-resistant counterparts, are obtained from the originators as listed: (a) S1 (parental line from a subclone of human colon carcinoma line LS174T) and derived S1-M1-3.2 (herein called S1-M1) which expresses the MXR drug transporter protein, are provided by Dr. L. Greenberger, Wyeth Research (Rabindran, S. K., He, H., Singh, M., Brown, E., Collins, K. I., Annable, T., and Greenberger, L. M. Reversal of a novel multidrug resistance mechanism in human colon carcinoma cells by fumitremorgin C. Cancer Res., 58: 5850-5858, 1998); (b) parental HL-60 human promyelocytic leukemia line and derived HL-60/ADR, which expresses the MRP1 drug transporter protein, are provided by Dr. M. Center, University of Kansas (McGrath, T., and Center, M. S. Adriamycin resistance in HL60 cells in the absence of detectable P-glycoprotein. Biochem. Biophys. […] J. Biol. Chem., 261: 7762-7770, 1986) via Dr. L. Greenberger, Wyeth Research.
as §4
(§6) On day 2, compounds for test are diluted and added to wells. Compounds are dissolved in DMSO at 10 mg/mL. For each compound, nine serial 2-fold dilutions are prepared in DMSO. Ten μL of each dilution in DMSO are transferred to 100 μL of medium, mixed well, and then 5 μL of this dilution are transferred in quadruplicate to wells containing cells. […] Plates are returned to the incubator for three days. At the time of drug addition to the experimental plates, the MTS assay is run on the “time 0” plate. This produces the “time 0 MTS value” which is related to the number of viable cells per well at the time of drug addition.
(§7) After three days of culture with test compounds (day 5 overall), the MTS assay is done on all wells of the experimental plates. The absorbance values of the quadruplicate sample wells are averaged and divided by the average of the “time 0” values. […] The nine values for each compound are plotted against concentration, and the concentration that produces a relative color yield half way between the maximum and minimum is taken as the IC50 value.

Another series relates to HL-60/ADR cells. The series is described as follows: MTS cytotoxicity test with HL-60/ADR cells (MRP1). The series is classed as cell-based, human. As to conditions: for IC50: HL-60/ADR cells, mean of 2 experiments; for Ratio: IC50 on HL-60/ADR cells/IC50 on HL-60 cells.
From the text: as §5, §4, §6, §7
(§8) HL-60/ADR cells overexpress the multidrug resistance protein MRP1 which mediates resistance to some chemotherapeutics (Gottesman, M. M., Fojo, T., and Bates, S. E. Multidrug resistance in cancer: role of ATP-dependent transporters. Nature Rev. Cancer, 2: 48-58, 2002). The IC50 values of representative examples of this invention, as well as reference compounds, on HL-60/ADR are compared to values on the sensitive parental HL-60 line.
A general note: Tetrazolium assays rely on reduction of a dye to a coloured formazan, in cell work by metabolically active cells.

The next series has as its system S1 cells. The series can be described thus: MTS cytotoxicity test with S1 cells. Particulars: mean of 2 experiments. It is filed as cell-based, human.
From the text: as §5, §4, §6, §7
(§9) S1-M1 cells overexpress the MXR transporter which mediates resistance to some chemotherapeutics (Gottesman, M. M., Fojo, T., and Bates, S. E. Miltidrug resistance in cancer: role of ATP-dependent transporters. Nature Rev. Cancer, 2: 48-58, 2002). The IC50 values of representative examples of this invention, as well as reference compounds, on S1-M1 are compared to values on the sensitive parental S1 line.

In the next series the test system is S1-M1 cells. The series is described as follows: MTS cytotoxicity test with S1-M1 cells (MXR). The series is classed as cell-based, human. Particulars: for IC50: S1-M1 cells, mean of 2 experiments; for Ratio: IC50 on S1-M1 cells/IC50 on S1 cells.
From the text: as §5, §4, §6, §7, §9

Another series relates to HL-60 cells. The series is described as follows: MTS cytotoxicity test with HL-60 cells. It is filed as cell-based, human. Particulars: mean of 2 experiments.
From the text: as §5, §4, §6, §7, §8

A further series deals with KB-8-5 cells. The series can be described thus: MTS cytotoxicity test with KB-8-5 cells (moderate P-glycoprotein). It is filed as cell-based, human. As to conditions: KB 8.5 cells, mean of 2 experiments.
From the text: as §5, §4, §6, §7

In another series the test system is KB cells. The series can be described thus: MTS cytotoxicity test with KB cells. The series is classed as cell-based, human. As to conditions: mean of 2 experiments.
From the text: as §5, §4, §6, §7

Each structure is given as a SMILES string.

For `CC(=O)O[C@@]12CO[C@@H]1C[C@H](O)[C@@]1(C)C(=O)[C@H](O)C3=C(C)[C@@H](OC(=O)[C@H](O)[C@@H](NC(=O)OC(C)(C)C)c4ccccc4)C[C@@](O)([C@@H](OC(=O)c4ccccc4)[C@H]21)C3(C)C` [Docetaxel, reference compound], the “A340 Compound / A340 Control” value in the series on MAP-rich tubulin amounted to 8.6.
Consider `CN(C#N)c1nc(Cl)c(-c2c(F)cc(F)cc2F)c(NCC(F)(F)F)n1` [Example 1, 4-Chloro-6-[(2,2,2-trifluoroethyl)amino]-5-(2,4,6-trifluorophenyl)pyrimidin-2-yl(methyl)cyanamide], for which, in series [1], the “[3H]Vinblastine binding, Mean” value is on record as 30 % of control. Besides, the IC50 with COLO 205 cells (Homo sapiens, 72 h) stood at 214 nM. In addition, in [2], the “[3H]Colchicine binding, Mean” value is 47 % of control.
`Fc1cc(F)c(-c2c(Cl)nc(-n3ccnc3)nc2NCC(F)(F)F)c(F)c1` [Example 15, 6-Chloro-2-(1H-imidazol-1-yl)-N-(2,2,2-trifluoroethyl)-5-(2,4,6-trifluorophenyl)pyrimidin-4-amine] gave a melting point of 168 to 170 °C. Moreover, in the series with COLO 205 cells (Homo sapiens, 72 h), the IC50 is 3030 nM.
`CN(C)CCCOc1cc(F)c(-c2c(Cl)nc(N(C)C#N)nc2NCC(F)(F)F)c(F)c1` [Example 19, 4-Chloro-5-{4-[3-(dimethylamino)propoxy]-2,6-difluorophenyl}-6-[(2,2,2-trifluoroethyl)amino]pyrimidin-2-yl(methyl)cyanamide]: the IC50 in the series on KB-V1 cells (Homo sapiens, KB-V1) was 176 nM; in the series with HL-60/ADR cells (Homo sapiens, HL60/ADR) it was 60 nM; with S1 cells (Homo sapiens), 88 nM; in the series on S1-M1 cells (Homo sapiens), 88 nM; with COLO 205 cells (Homo sapiens, 72 h) it was 52 nM; with HL-60 cells (Homo sapiens), 66 nM. Also, the IC50 with KB-8-5 cells (Homo sapiens) came out at 69 nM; in the series with KB cells (Homo sapiens), 63 nM. The values for the Ratio with HL-60/ADR cells and with S1-M1 cells were 0.9 and 1.0, respectively. Moreover, the “[3H]Vinblastine binding, Mean” value in [1] is 22 % of control. Moreover, in series [2], the “[3H]Colchicine binding, Mean” value is 116 % of control.
In turn, `CN(C)CCCOc1cc(F)c(-c2c(Cl)nc(-n3ccnc3)nc2NCC(F)(F)F)c(F)c1` [Example 31, 6-Chloro-5-{4-[3-(dimethylamino)propoxy]-2,6-difluorophenyl}-2-(1H-imidazol-1-yl)-N-(2,2,2-trifluoroethyl)pyrimidin-4-amine] returned a melting point of 47 to 49 °C. For the same compound, the IC50 in the series on COLO 205 cells (Homo sapiens, 72 h) was determined as 682 nM.
Take `CNCCCOc1cc(F)c(-c2c(Cl)nc(-c3cnccn3)nc2C2CCCCCC2)c(F)c1.O=C(O)C(F)(F)F` [Example 33a, N-{3-[4-(4-Chloro-6-cycloheptyl-2-pyrazin-2-ylpyrimidin-5-yl)-3,5-difluorophenoxy]propyl}-N-methylamine trifluoroacetic acide salt]: the “Ratio VI/KB” value in the series with KB-V1 cells (IC50 on KB VI cells/IC50 on KB cells) is reported as 13. The half-inhibitory concentration (IC50) in the series on KB-V1 cells stood at 91 nM; with HL-60/ADR cells, 6.1 nM; with S1 cells, 8.5 nM; in the series with S1-M1 cells it was 12 nM; with COLO 205 cells it was 8.2 nM; in the series with HL-60 cells, 6.9 nM. Also, the IC50 in the series with KB-8-5 cells stood at 7.5 nM; with KB cells it was 6.8 nM. Besides, the “recognition by P-glycoprotein” value in the series on KB-V1 cells (inferred from change in IC50 KB-V1 vs KB) was “show recognition by P-glycoprotein, but much less than that shown by paclitaxel and vincristine”. For the same compound, the Ratio in the series on HL-60/ADR cells stood at 0.9; with S1-M1 cells it was 1.4. Further, the “A340 Compound / A340 Control” value in the series on MAP-rich tubulin is 0.5.

As usually defined, the IC50 is the midpoint of a concentration-inhibition curve. A word on the melting point: it is the temperature, or range, at which the solid turns liquid.
